The subject of the first test is HIV-1 fusion. The test can be described thus: gp160 induced cell-cell fusion assay (HeLa P4 / CHO-Tat10 cells, β-galactosidase reporter). The class given is cell-based. The note with it: Human immunodeficiency virus 1, HeLaP4, read-out: IC50 against HIV-1 fusion. The procedure: The gp160 induced cell-cell fusion assay uses a HeLa P4 cell line and a CHO-Tat10 cell line.
The HeLa P4 cell line expresses CCR5 and CD4 and has been transfected with HIV-1 LTR-β-Galactosidase. The media for this cell line is Dulbecco modified eagle's medium (D-MEM) (without L-glutamine) containing 10% foetal calf serum (FCS), 2 mM L-glutamine penicillin/streptomycin (Pen/Strep; 100 U/mL penicillin+[…] streptomycin), and 1 μg/ml puromycin.
The CHO cell line is a Tat (transcriptional trans activator)-expressing clone from a CHO JRR17.1 cell line that has been transfected with pTat puro plasmid. The media for this cell line is rich medium for mammalian cell culture originally developed at Roswell Park Memorial Institute RPMI1640 (without L-glutamine) containing 10% FCS, 2 mM L-glutamine, 0.5 mg/ml Hygromycin B and 12 μg/ml puromycin. The CHO JRR17.1 line expresses gp160 (JRFL) and is a clone that has been selected for its ability to fuse with a CCR5/CD4 expressing cell line.
Upon cell fusion, Tat present in the CHO cell is able to transactivate the HIV-1 long terminal repeat (LTR) present in the HeLa cell leading to the expression of the β-Galactosidase enzyme. This expression is then measured using a Fluor Ace™ β-Galactosidase reporter assay kit (Bio-Rad cat no. 170-3150). This kit is a quantitative fluorescent assay that determines the level of expression of β-galactosidase using 4-methylumbelliferul-galactopyranoside (MUG) as substrate. β-Galactosidase hydrolyses the fluorogenic substrate resulting in release of the fluorescent molecule 4-methylumbelliferone (4MU). Fluorescence of 4-methylumbelliferone is then measured on a fluorometer using an excitation wavelength of 360 nm and emission wavelength of 460 nm.
Compounds that inhibit fusion will give rise to a reduced signal and, following solubilisation in an appropriate solvent and dilution in culture medium, a dose-response curve for each compound can be used to calculate IC50 values.
With `CC(Oc1cccc2ccccc12)C(=O)N1CCN(C(=O)c2ccccc2)C[C@H]1C` (stereo partly drawn) [Example 29], the IC50 is 134 nM.

On to `Cc1n[nH]c2cccc(O[C@@H](C)C(=O)N3CCN(C(=O)c4ccccc4)C[C@H]3C)c12` [Example 12], for which the IC50 was 15 nM.

As to `CC(Oc1ccccc1C(N)=O)C(=O)N1CCN(C(=O)c2ccccc2)C[C@H]1C` (stereo partly drawn) [Example 44], the IC50 came to 825 nM.

Another test deals with interaction of gp120 with CD4 (Human immunodeficiency virus type 1 group M subtype B, UniProt P04578). The test can be described thus: gp120/soluble CD4 enzyme linked immunosorbent assay (ELISA). The class given is binding. Particulars: soluble CD4 conjugated to horseradish peroxidase, absorbance at 492 nm, read-out: IC50, inhibition of interaction of gp120 with soluble CD4. How it is done: Maxisorp plates (Nunc) are coated with 2 μg/well of anti-gp120 antibody (D7324). 100 μl of gp120 (dilution pre-determined by titration) is added to each well and incubated for 90 minutes at room temperature. The sample is removed and the wells are washed with PBS (phosphate buffered saline)+0.01% TWEEN® (polyethylene glycol sorbitan monolaurate). 50 μl/well of compound is added followed by 50 μl (0.1 μg) of soluble CD4 conjugated to horseradish peroxidase (Autogen Bioclear). The plate is incubated for 90 minutes at room temperature before the wells are washed again. The substrate OPD (o-phenylenediamine, Sigma) is added at a concentration of 0.5 mg/ml and the plate incubated in the dark at room temperature for 3 minutes before 3M HCl is added to stop the reaction. Compounds that inhibit the interaction of gp120 with soluble CD4 will give rise to a reduced absorbance at 492 nm.
For the molecule `C[C@H](Oc1cccc2ncccc12)C(=O)N1CCN(C(=O)c2ccccc2)C[C@H]1C` [Example 1, (2S)-1-[(2R)-4-Benzoyl-2-methyl-piperazin-1-yl]-2-(quinolin-5-yloxy)-prooan-1-one], the IC50 was determined as 920 nM.

`Cc1n[nH]c2cccc(O[C@@H](C)C(=O)N3CCN(C(=O)c4ccccc4)C[C@H]3C)c12` [Example 12]: the IC50 is 750 nM.

Regarding `CNC(=O)c1ccc(O[C@@H](C)C(=O)N2CCN(C(=O)c3ccccc3)C[C@H]2C)c(OC)c1` [Example 11], the IC50 was found to be 1000 nM.

The values above are taken from patent US20050043300A1, “Piperazine derivatives” (priority 2003, published 2005).
